In US11807644B2 (PMV Pharmaceuticals, Inc., priority 2020, dated 2023):

Molecular target: T1, recombinant His-tag Y220C p53 DBD protein (Homo sapiens, UniProt P04637, Y220C)
T1 construct: recombinant His-tag Y220C p53 DBD protein (amino acids #˜94-312)
Experiment: In vitro DNA binding activity assay (TR-FRET): binding of His-tag Y220C p53 DBD to biotin-labeled consensus DNA
Assay type: biochemical
Settings: SC150 = concentration to increase DNA binding by […], His-tag Y220C p53 DBD, biotin-labeled consensus DNA
Experimental: DNA binding activity of the compounds was measured using a TR-FRET (Time-Resolved Fluorescence Resonance Energy Transfer) assay in which recombinant His-tag Y220C p53 DBD protein binds to biotin-labeled consensus DNA. Binding of recombinant His-tag Y220C p53 DBD protein and biotin-labeled consensus DNA was registered by the FRET (fluorescence resonance energy transfer) between allophycocyanin (APC) conjugated anti-His tag antibody and Europium-(Eu) conjugated Streptavidin.
The compounds of TABLES 1-9 (2 mM stock in dimethylsulfoxide) were diluted 3-fold in series in dimethylsulfoxide. 1.2 μL of a compound solution was added to each well of 384-well polypropylene black plates (NUNC). Thirty μL per well of 181 nM recombinant His-tag Y220C p53 DBD protein (amino acids #˜94-312; SEQ ID NO: 1) and 6.1 nM of APC conjugated anti-His tag antibody (Columbia Biosciences) in ice-cold Assay Buffer 1 (50 mM Tris-HCl, pH 7.4, 75 mM KCl, 0.75 mM DTT and 0.2 mg/ml, BSA) were added. As a background control. 30 μL of Assay Buffer 1 containing 6.1 nM of APC anti-His antibody (No Y220C protein) was also added into a second set of serially diluted compound plates. The samples were spun by centrifuge at 1,200 rpm (Eppendorf 5810R Plate centrifuge) for 1 minute and incubated at room temperature (20° C.) for 15 min. The samples were then further incubated at either 27° C. or 29° C. for 60 min. […] The samples were spun by centrifuge at 1,200 rpm for 1 min and incubated at room temperature (20° C.) for 20 min. Assay signals were monitored by reading excitation at 340 nm, and emission fluorescence at 615 nm and 665 nm on an Envision® reader. Normalized TR-FRET (time-resolved fluorescence resonance energy transfer) assay signal (Rn) was calculated by the formula: Rn=[(A−Ba−C×(D−Bd))/(D−Bd)]×(D−Bd) Wherein: • A is the fluorescence intensity of the sample at 665 nm; • D is the fluorescence intensity of the sample at 615 nm; • Ba and Bd are plate backgrounds at 665 nm and 615 nm, respectively; and • Dc is the fluorescence intensity of 0.67 nM Eu-SA in the assay buffer at 615 nm.
The cross-talk factor (C) was determined by the following formula: C=(Ac−Ba)/(Dc−Bd) wherein Ac is the fluorescence intensity of 0.67 nM Europium (Eu) conjugated Streptavidin in the assay buffer at 665 nm.

**Q.** `CN1CC[C@@H](Nc2cccc3c2cc(-c2noc(CNC(=O)c4cn(C(C)(C)CF)cn4)n2)n3CC(F)(F)F)[C@@H](F)C1` [Compound 342B, N-{[3-(4-{[(3S,4R)-3-fluoro-1-methylpiperidin-4-yl]amino}-1-(2,2,2-trifluoroethyl)-1H-indol-2-yl)-1,2,4-oxadiazol-5-yl]methyl}-1-(1-fluoro-2-methylpropan-2-yl)-1H-imidazole-4-carboxamide] was tested. Which “Y220C SC150 (μM)” value did it give?
**A.** * (* = 0 μM ≤ SC150 < 0.1 μM)

**Q.** `Cn1ccc(-c2cc3c(NC4CCS(=O)(=O)CC4)cccc3n2CC(F)(F)F)n1` [Compound 14B, 4-{[2-(1-methyl-1H-pyrazol-3-yl)-1-(2,2,2-trifluoroethyl)-1H-indol-4-yl]amino}-1λ^6-thiane-1,1-dione] was tested. Which “Y220C SC150 (μM)” value did it give?
**A.** **** (**** = 1 μM ≤ SC150 < 10 μM)

**Q.** Which “Y220C SC150 (μM)” value does the source give for `CC1CN(c2nc(C(=O)NCc3nc(-c4cc5c(N[C@@H]6CCN(C)C[C@@H]6F)cccc5n4CC(F)(F)F)no3)cs2)C[C@H](C)O1` (stereo in doubt) [Compound 517B, 2-[(2S,6S)-2,6-dimethylmorpholin-4-yl]-N-{[3-(4-{[(3S,4R)-3-fluoro-1-methylpiperidin-4-yl]amino}-1-(2,2,2-trifluoroethyl)-1H-indol-2-yl)-1,2,4-oxadiazol-5-yl]methyl}-1,3-thiazole-4-carboxamide] here?
**A.** * (* = 0 μM ≤ SC150 < 0.1 μM)

**Q.** For `CCN1CC[C@@H](Nc2cccc3c2cc(-c2noc(CNC(=O)c4ccn(C5CCOC5)c4)n2)n3CC(F)(F)F)[C@@H](F)C1` (stereo partly drawn) [Compound 324B, N-{[3-(4-{[(3S,4R)-1-ethyl-3-fluoropiperidin-4-yl]amino}-1-(2,2,2-trifluoroethyl)-1H-indol-2-yl)-1,2,4-oxadiazol-5-yl]methyl}-1-(oxolan-3-yl)-1H-pyrrole-3-carboxamide], which “Y220C SC150 (μM)” value is on record?
**A.** * (* = 0 μM ≤ SC150 < 0.1 μM)

**Q.** Which “Y220C SC150 (μM)” value does the source give for `CN1CCC(Nc2cccc3c2cc(-c2nnc(CNC(=O)c4ccc(C(=O)O)cc4)s2)n3CC(F)(F)F)CC1` [Compound 54B, 4-{[(5-{4-[(1-methylpiperidin-4-yl)amino]-1-(2,2,2-trifluoroethyl)-1H-indol-2-yl}-1,3,4-thiadiazol-2-yl)methyl]carbamoyl}benzoic acid] here?
**A.** ** (** = 0.1 μM ≤ SC150 < 0.5 μM)

**Q.** `CN1CC[C@@H](Nc2cccc3c2cc(-c2noc(CNC(=O)c4cnn(C5CCOC5)c4)n2)n3CC(F)(F)F)[C@@H](F)C1` (stereo partly drawn) [Compound 321B, N-{[3-(4-{[(3S,4R)-3-fluoro-1-methylpiperidin-4-yl]amino}-1-(2,2,2-trifluoroethyl)-1H-indol-2-yl)-1,2,4-oxadiazol-5-yl]methyl}-1-(oxolan-3-yl)-1H-pyrazole-4-carboxamide] was tested. Which “Y220C SC150 (μM)” value did it give?
**A.** * (* = 0 μM ≤ SC150 < 0.1 μM)

**Q.** Which “Y220C SC150 (μM)” value does the source give for `CN(C)CCn1ccc(C(=O)NCc2nc(-c3cc4c(N[C@@H]5CCN(C)C[C@@H]5F)cccc4n3CC(F)(F)F)no2)c1` [Compound 229B, 1-[2-(dimethylamino)ethyl]-N-{[3-(4-{[(3S,4R)-3-fluoro-1-methylpiperidin-4-yl]amino}-1-(2,2,2-trifluoroethyl)-1H-indol-2-yl)-1,2,4-oxadiazol-5-yl]methyl}-1H-pyrrole-3-carboxamide] here?
**A.** * (* = 0 μM ≤ SC150 < 0.1 μM)

**Q.** `CN1CC[C@@H](Nc2cccc3c2cc(-c2nc(CNC(=O)c4ccccc4)no2)n3CC(F)(F)F)[C@@H](F)C1` (racemic) [Compound 276B, (+/−)-N-{[5-(4-{[(3R,4S)-3-fluoro-1-methylpiperidin-4-yl]amino}-1-(2,2,2-trifluoroethyl)-1H-indol-2-yl)-1,2,4-oxadiazol-3-yl]methyl}benzamide] was tested. Which “Y220C SC150 (μM)” value did it give?
**A.** * (* = 0 μM ≤ SC150 < 0.1 μM)

**Q.** For `CN1CCC(Nc2cccc3c2cc(-c2nnc(CNC4CCNC4)s2)n3CC(F)(F)F)CC1` (stereo not shown) [Compound 80B, N-(1-methylpiperidin-4-yl)-2-(5-{[(pyrrolidin-3-yl)amino]methyl}-1,3,4-thiadiazol-2-yl)-1-(2,2,2-trifluoroethyl)-1H-indol-4-amine], which “Y220C SC150 (μM)” value is on record?
**A.** **** (**** = 1 μM ≤ SC150 < 10 μM)

**Q.** For `CN1CC[C@@H](Nc2cccc3c2cc(-c2noc(CNC(=O)[C@@H]4C[C@H]4CN4CCCC4)n2)n3CC(F)(F)F)[C@@H](F)C1` [Compound 265B, (1R,2R)-N-{[3-(4-{[(3S,4R)-3-fluoro-1-methylpiperidin-4-yl]amino}-1-(2,2,2-trifluoroethyl)-1H-indol-2-yl)-1,2,4-oxadiazol-5-yl]methyl}-2-[(pyrrolidin-1-yl)methyl]cyclopropane-1-carboxamide], which “Y220C SC150 (μM)” value is on record?
**A.** * (* = 0 μM ≤ SC150 < 0.1 μM)

**Q.** Which “Y220C SC150 (μM)” value does the source give for `CN1CC[C@@H](Nc2cccc3c2cc(-c2noc(CNC(=O)c4cccc(C(C)(C)O)c4)n2)n3CC(F)(F)F)[C@@H](F)C1` [Compound 549B, N-{[3-(4-{[(3S,4R)-3-fluoro-1-methylpiperidin-4-yl]amino}-1-(2,2,2-trifluoroethyl)-1H-indol-2-yl)-1,2,4-oxadiazol-5-yl]methyl}-3-(2-hydroxypropan-2-yl)benzamide] here?
**A.** * (* = 0 μM ≤ SC150 < 0.1 μM)

**Q.** With `CCN1CC[C@@H](Nc2cccc3c2cc(-c2noc(CNC(=O)c4ccn(CCOC)c4)n2)n3CC(F)(F)F)[C@@H](F)C1` [Compound 272B, N-{[3-(4-{[(3S,4R)-1-ethyl-3-fluoropiperidin-4-yl]amino}-1-(2,2,2-trifluoroethyl)-1H-indol-2-yl)-1,2,4-oxadiazol-5-yl]methyl}-1-(2-methoxyethyl)-1H-pyrrole-3-carboxamide] as the compound, how does the “Y220C SC150 (μM)” value read?
**A.** * (* = 0 μM ≤ SC150 < 0.1 μM)

**Q.** Which “Y220C SC150 (μM)” value does the source give for `CN1CC[C@@H](Nc2cccc3c2cc(-c2noc(CNC(=O)[C@H]4CC4(C)C)n2)n3CC(F)(F)F)[C@@H](F)C1` [Compound 233B, (1S)-N-{[3-(4-{[(3S,4R)-3-fluoro-1-methylpiperidin-4-yl]amino}-1-(2,2,2-trifluoroethyl)-1H-indol-2-yl)-1,2,4-oxadiazol-5-yl]methyl}-2,2-dimethylcyclopropane-1-carboxamide] here?
**A.** * (* = 0 μM ≤ SC150 < 0.1 μM)

**Q.** For `COCCn1cnc(C(=O)NCc2nc(-c3cc4c(N[C@@H]5CCN(C)C[C@@H]5F)cccc4n3CC(F)(F)F)no2)c1` [Compound 297B, N-{[3-(4-{[(3S,4R)-3-fluoro-1-methylpiperidin-4-yl]amino}-1-(2,2,2-trifluoroethyl)-1H-indol-2-yl)-1,2,4-oxadiazol-5-yl]methyl}-1-(2-methoxyethyl)-1H-imidazole-4-carboxamide], which “Y220C SC150 (μM)” value is on record?
**A.** * (* = 0 μM ≤ SC150 < 0.1 μM)

**Q.** How did the “Y220C SC150 (μM)” value turn out when `CN1CCC(Nc2cccc3c2cc(-c2ncc(CNC(=O)c4ccccc4)s2)n3CC(F)(F)F)CC1` [Compound 92B, N-[(2-{4-[(1-methylpiperidin-4-yl)amino]-1-(2,2,2-trifluoroethyl)-1H-indol-2-yl}-1,3-thiazol-5-yl)methyl]benzamide] was run?
**A.** ** (** = 0.1 μM ≤ SC150 < 0.5 μM)

Same assay, conditions: concentration to increase DNA binding by […], incubated at either 27° C. or 29° C. for 60 min

**Q.** `CS(=O)(=O)c1ccc(NC(=O)NCc2ccc(-c3cc4c(NC5CCS(=O)(=O)CC5)cccc4n3CC(F)(F)F)cc2)cc1` [Compound 28A, 1-[(4-{4-[(1,1-dioxo-1λ^6-thian-4-yl)amino]-1-(2,2,2-trifluoroethyl)-1H-indol-2-yl}phenyl)methyl]-3-(4-methanesulfonylphenyl)urea] was tested. Which “SC150 (μM)” value did it give?
**A.** + (+ = 0 μM ≤ SC150 < 2 μM)

**Q.** `CN1CC[C@H](Nc2cccc3c2cc(-c2ccc(CNC(=O)C4CC4)cc2)n3CC(F)(F)F)[C@H](F)C1` (racemic) [Compound 46A, (+/−)-N-{[4-(4-{[(3R,4S)-3-fluoro-1-methylpiperidin-4-yl]amino}-1-(2,2,2-trifluoroethyl)-1H-indol-2-yl)phenyl]methyl}cyclopropanecarboxamide] was tested. Which “SC150 (μM)” value did it give?
**A.** + (+ = 0 μM ≤ SC150 < 2 μM)

**Q.** How did the “SC150 (μM)” value turn out when `CC(Nc1ccc(S(C)(=O)=O)cc1)c1ccc(-c2cc3c(NC4CCN(C)CC4)cccc3n2CC(F)(F)F)cc1` (stereo not shown) [Compound 41A, 2-(4-{1-[(4-methanesulfonylphenyl)amino]ethyl}phenyl)-N-(1-methylpiperidin-4-yl)-1-(2,2,2-trifluoroethyl)-1H-indol-4-amine] was run?
**A.** ++ (++ = 2 μM ≤ SC150 < 5 μM)

**Q.** How did the “SC150 (μM)” value turn out when `CS(=O)(=O)c1ccc(NCc2ccc(-c3cc4c(NC5CCS(=O)(=O)CC5)cccc4n3CC(F)(F)F)cc2)cc1` [Compound 8A, 4-{[2-(4-{[(4-methanesulfonylphenyl)amino]methyl}phenyl)-1-(2,2,2-trifluoroethyl)-1H-indol-4-yl]amino}-1λ^6-thiane-, 1-dione] was run?
**A.** + (+ = 0 μM ≤ SC150 < 2 μM)
